Test results reported in patent publication US11623919B2, “Heterocyclic P2X7 antagonists” (AXXAM S.P.A., priority 2017, dated 2023).

How the values were obtained:
P2X7 receptor [1] = target: T1, P2X7 receptor (Mus musculus, UniProt Q9Z1M0); test: Screen Quest Fluo-8 No Wash Calcium Assay (Bz-ATP evoked Ca2+ influx, FLIPR); type: cell-based; settings: mP2X7; HEK-293 cells stably transfected with P2X7 receptor, Bz-ATP at EC80, Fluo-8 NW; potency ranges A-D
T1 construct: mP2X7 (IC50; nM); other: mP2X7; HEK-293 cells stably transfected with P2X7 receptor, Bz-ATP at EC80, Fluo-8 NW; potency
T1 sequence (Q9Z1M0 1-595): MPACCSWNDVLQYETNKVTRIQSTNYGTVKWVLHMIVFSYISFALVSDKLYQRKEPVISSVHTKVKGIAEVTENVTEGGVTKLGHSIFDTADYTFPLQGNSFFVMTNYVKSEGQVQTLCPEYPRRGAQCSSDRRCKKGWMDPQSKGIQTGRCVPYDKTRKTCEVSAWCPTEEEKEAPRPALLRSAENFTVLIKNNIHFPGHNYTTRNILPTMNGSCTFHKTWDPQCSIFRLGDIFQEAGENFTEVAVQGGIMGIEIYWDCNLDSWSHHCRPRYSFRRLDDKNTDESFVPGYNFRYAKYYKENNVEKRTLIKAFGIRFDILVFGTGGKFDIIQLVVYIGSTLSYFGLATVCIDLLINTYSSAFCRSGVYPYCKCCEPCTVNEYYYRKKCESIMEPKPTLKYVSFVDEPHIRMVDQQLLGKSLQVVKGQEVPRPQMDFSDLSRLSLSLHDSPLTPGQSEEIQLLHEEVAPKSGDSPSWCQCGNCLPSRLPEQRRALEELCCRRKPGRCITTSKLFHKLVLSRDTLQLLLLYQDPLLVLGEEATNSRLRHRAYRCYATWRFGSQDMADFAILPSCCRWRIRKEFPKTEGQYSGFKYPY
Summary of the method: (§1)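 HEK-293 cells stably expressing P2X7 were loaded with Fluo-8 NW for 1 h at RT, then given compound, and 5 min later Bz-ATP at EC80. Fluorescence was read by FLIPR in low divalent cation buffer (0.3 mM Ca2+, 0 mM Mg2+). IC50 came from percent inhibition relative to reference antagonist A438079.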

P2X7 receptor [2] = target: T2, P2X7 receptor (Rattus norvegicus, UniProt Q64663); test: as above; type: cell-based; settings: rP2X7; HEK-293 cells stably transfected with P2X7 receptor, Bz-ATP at EC80, Fluo-8 NW; potency ranges A-D
T2 construct: rP2X7 (IC50; nM); other: rP2X7; HEK-293 cells stably transfected with P2X7 receptor, Bz-ATP at EC80, Fluo-8 NW; potency
T2 sequence (Q64663 1-595): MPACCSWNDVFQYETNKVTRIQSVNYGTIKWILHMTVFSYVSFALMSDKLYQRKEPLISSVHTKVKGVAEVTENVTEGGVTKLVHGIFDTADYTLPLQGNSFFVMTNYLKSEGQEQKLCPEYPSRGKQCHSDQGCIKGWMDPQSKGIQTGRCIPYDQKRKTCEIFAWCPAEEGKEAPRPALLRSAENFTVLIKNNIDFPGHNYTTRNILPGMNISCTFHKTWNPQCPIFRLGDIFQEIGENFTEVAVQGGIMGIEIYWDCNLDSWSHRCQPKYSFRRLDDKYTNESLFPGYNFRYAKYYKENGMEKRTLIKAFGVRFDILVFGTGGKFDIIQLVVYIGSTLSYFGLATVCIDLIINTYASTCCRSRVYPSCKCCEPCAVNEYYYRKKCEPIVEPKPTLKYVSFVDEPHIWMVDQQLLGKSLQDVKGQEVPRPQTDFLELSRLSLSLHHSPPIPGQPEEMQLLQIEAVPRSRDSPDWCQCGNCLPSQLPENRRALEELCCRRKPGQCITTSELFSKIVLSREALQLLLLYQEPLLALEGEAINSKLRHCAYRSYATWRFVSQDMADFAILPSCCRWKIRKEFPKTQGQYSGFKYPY
Summary of the method: as §1

IC50 (P2X7 receptor [1])	IC50 (P2X7 receptor [2])	Compound
200 to 1000 nM	200 to 1000 nM	CC1(C)CCCCC1Cn1c(Cc2c(F)cccc2Cl)noc1=O (stereo not drawn) [Example 99, 3-[(2-chloro-6-fluorophenyl)methyl]-4-[(2,2-dimethylcyclohexyl)methyl]-4,5-dihydro-1,2,4-oxadiazol-5-one]
200 to 1000 nM	< 200 nM	O=c1onc(Cc2ccc(F)cc2Cl)n1CC1CCCCC1 [Example 114, 3-[(2-chloro-4-fluorophenyl)methyl]-4-(cyclohexylmethyl)-4,5-dihydro-1,2,4-oxadiazol-5-one]
1000 to 10000 nM	200 to 1000 nM	O=c1onc(Cc2cccc(Cl)c2Cl)n1CC1CCCCC1 [Example 115, 4-(cyclohexylmethyl)-3-[(2,3-dichlorophenyl)methyl]-4,5-dihydro-1,2,4-oxadiazol-5-one]
1000 to 10000 nM	200 to 1000 nM	O=c1onc(Cc2ccccc2C(F)(F)F)n1CC1CCCCC1 [Example 116, 4-(cyclohexylmethyl)-3-{[2-(trifluoromethyl)phenyl]methyl}-4,5-dihydro-1,2,4-oxadiazol-5-one]
200 to 1000 nM	< 200 nM	O=c1onc(Cc2ccccc2Cl)n1CC1CCCCC1 [Example 117, 3-[(2-chlorophenyl)methyl]-4-(cyclohexylmethyl)-4,5-dihydro-1,2,4-oxadiazol-5-one]
1000 to 10000 nM	200 to 1000 nM	O=c1onc(Cc2ccc(Cl)cc2Cl)n1CC1CCCCC1 [Example 118, 4-(cyclohexylmethyl)-3-[(2,4-dichlorophenyl)methyl]-4,5-dihydro-1,2,4-oxadiazol-5-one]
200 to 1000 nM	< 200 nM	O=c1onc(Cc2ccc(F)cc2F)n1CC1CCCCC1 [Example 119, 4-(cyclohexylmethyl)-3-[(2,4-difluorophenyl)methyl]-4,5-dihydro-1,2,4-oxadiazol-5-one]
200 to 1000 nM	< 200 nM	O=c1onc(Cc2ccccc2F)n1CC1CCCCC1 [Example 120, 4-(cyclohexylmethyl)-3-[(2-fluorophenyl)methyl]-4,5-dihydro-1,2,4-oxadiazol-5-one]
200 to 1000 nM	< 200 nM	O=c1onc(CC2CCCCC2)n1Cc1c(F)cccc1Cl [Example 130, 4-[(2-chloro-6-fluorophenyl)methyl]-3-(cyclohexylmethyl)-4,5-dihydro-1,2,4-oxadiazol-5-one]
< 200 nM	< 200 nM	O=c1onc(CC2CCC(F)(F)CC2)n1Cc1c(F)cccc1Cl [Example 132, 4-[(2-chloro-6-fluorophenyl)methyl]-3-[(4,4-difluorocyclohexyl)methyl]-4,5-dihydro-1,2,4-oxadiazol-5-one]
1000 to 10000 nM	200 to 1000 nM	O=c1snc(Cc2c(F)cccc2Cl)n1CC1CCCCC1 [Example 140, 3-[(2-chloro-6-fluorophenyl)methyl]-4-(cyclohexylmethyl)-4,5-dihydro-1,2,4-thiadiazol-5-one]
< 200 nM	< 200 nM	O=c1snc(Cc2c(F)cccc2Cl)n1CC1CCC(F)(F)CC1 [Example 141, 3-[(2-chloro-6-fluorophenyl)methyl]-4-[(4,4-difluorocyclohexyl)methyl]-4,5-dihydro-1,2,4-thiadiazol-5-one]
200 to 1000 nM	200 to 1000 nM	O=c1onc(Cc2c(F)cccc2Cl)n1CCC1CCCCC1 [Example 142, 3-(2-chloro-6-fluorobenzyl)-4-(2-cyclohexylethyl)-1,2,4-oxadiazol-5(4H)-one]
1000 to 10000 nM	200 to 1000 nM	Cc1noc(C)c1Cc1noc(=O)n1CC1CCCCC1 [Example 210, 4-(cyclohexylmethyl)-3-[(dimethyl-1,2-oxazol-4-yl)methyl]-4,5-dihydro-1,2,4-oxadiazol-5-one]
1000 to 10000 nM	200 to 1000 nM	Cc1noc(C)c1Cc1noc(=O)n1CC1CCC(F)(F)CC1 [Example 211, 4-[(4,4-difluorocyclohexyl)methyl]-3-[(dimethyl-1,2-oxazol-4-yl)methyl]-4,5-dihydro-1,2,4-oxadiazol-5-one]
